Source: PubChem BioAssay AID2060507 (Molecular Pharmacology Branch, DTP, NCI, 2025)

Test system: 519858-162-T-J1-PDC complex spheroid viability
Assay: Anticancer human tumor 519858-162-T-J1-PDC patient-derived colon adenocarcinoma cell line growth inhibition [GQUAD]
Conditions: for IC50: curve of first compound; for viability, T/C: stronger effect = lower value
In short: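 Multi-cell-type spheroids of tumor cells with HUVEC and mesenchymal stem cells, treated with drug combinations. Concentrations descend in half-log steps from near clinical Cmax, or from 10 microM where Cmax is unknown; viability read-out.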

[1] = second compound 0.0316 µM, first compound 0.0316 µM
[2] = second compound 0.0316 µM, first compound 0.1 µM
[3] = second compound 0.0316 µM, first compound 0.316 µM
[4] = second compound 0.0316 µM, first compound 1 µM
[5] = second compound 0.0316 µM, first compound 3.16 µM
[6] = second compound 0.0316 µM, first compound 10 µM
[7] = second compound 0.1 µM, first compound 0.0316 µM
[8] = second compound 0.1 µM, first compound 0.1 µM
[9] = second compound 0.1 µM, first compound 0.316 µM
[10] = second compound 0.1 µM, first compound 1 µM
[11] = second compound 0.1 µM, first compound 3.16 µM
[12] = second compound 0.1 µM, first compound 10 µM
[13] = second compound 0.316 µM, first compound 0.0316 µM
[14] = second compound 0.316 µM, first compound 0.1 µM
[15] = second compound 0.316 µM, first compound 0.316 µM
[16] = second compound 0.316 µM, first compound 1 µM
[17] = second compound 0.316 µM, first compound 3.16 µM
[18] = second compound 0.316 µM, first compound 10 µM
[19] = second compound 1 µM, first compound 0.0316 µM
[20] = second compound 1 µM, first compound 0.1 µM
[21] = second compound 1 µM, first compound 0.316 µM
[22] = second compound 1 µM, first compound 1 µM
[23] = second compound 1 µM, first compound 3.16 µM
[24] = second compound 1 µM, first compound 10 µM
[25] = second compound 3.16 µM, first compound 0.0316 µM
[26] = second compound 3.16 µM, first compound 0.1 µM
[27] = second compound 3.16 µM, first compound 0.316 µM
[28] = second compound 3.16 µM, first compound 1 µM
[29] = second compound 3.16 µM, first compound 3.16 µM
[30] = second compound 3.16 µM, first compound 10 µM
[31] = second compound 10 µM, first compound 0.0316 µM
[32] = second compound 10 µM, first compound 0.1 µM
[33] = second compound 10 µM, first compound 0.316 µM
[34] = second compound 10 µM, first compound 1 µM
[35] = second compound 10 µM, first compound 3.16 µM
[36] = second compound 10 µM, first compound 10 µM
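Note: spheroids exposed to compounds for 7 days.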
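Throughout, for viability, T/C: 100% = DMSO vehicle control viability.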

SMILES: C#Cc1c(F)ccc2cc(O)cc(-c3ncc4c(N5CC6CCC(C5)N6)nc(OCC56CCCN5CC(F)C6)nc4c3F)c12 (centres undefined) + CN(C)c1ccc(Nc2c3ccc(NC(=O)CCN4CCCC4)cc3nc3cc(NC(=O)CCN4CCCC4)ccc23)cc1
- IC50 (second compound 0.0316 µM): > 10 µM
- IC50 (second compound 0.1 µM): > 10 µM
- IC50 (second compound 0.316 µM): > 10 µM
- IC50 (second compound 1 µM): > 10 µM
- IC50 (second compound 3.16 µM): > 10 µM
- IC50 (second compound 10 µM): > 10 µM
- viability, T/C [1]: 117%
- viability, T/C [2]: 100%
- viability, T/C [3]: 99.8%
- viability, T/C [4]: 70.8%
- viability, T/C [5]: 72%
- viability, T/C [6]: 99.5%
- viability, T/C [7]: 86.2%
- viability, T/C [8]: 85.3%
- viability, T/C [9]: 89.4%
- viability, T/C [10]: 93.2%
- viability, T/C [11]: 70.2%
- viability, T/C [12]: 62.7%
- viability, T/C [13]: 134%
- viability, T/C [14]: 87.8%
- viability, T/C [15]: 93.1%
- viability, T/C [16]: 77.3%
- viability, T/C [17]: 82.1%
- viability, T/C [18]: 77.6%
- viability, T/C [19]: 112%
- viability, T/C [20]: 97.4%
- viability, T/C [21]: 78.1%
- viability, T/C [22]: 66.2%
- viability, T/C [23]: 91.7%
- viability, T/C [24]: 62%
- viability, T/C [25]: 92%
- viability, T/C [26]: 85.5%
- viability, T/C [27]: 118%
- viability, T/C [28]: 74.5%
- viability, T/C [29]: 72.9%
- viability, T/C [30]: 62.9%
- viability, T/C [31]: 66.9%
- viability, T/C [32]: 55%
- viability, T/C [33]: 77.8%
- viability, T/C [34]: 48.9%
- viability, T/C [35]: 89.3%
- viability, T/C [36]: 55.6%

SMILES: COc1cc(C2c3cc4c(cc3C(OC3OC5COC(C)OC5C(O)C3O)C3COC(=O)C23)OCO4)cc(OC)c1O (centres undefined) + Cc1cnc(CNC(=O)c2c(=O)c3ccc(N4CCCN(C)CC4)nc3n3c2sc2ccccc23)cn1
- IC50 (second compound 0.0316 µM): > 10 µM
- IC50 (second compound 0.1 µM): > 10 µM
- IC50 (second compound 0.316 µM): 8.09 µM
- IC50 (second compound 1 µM): > 10 µM
- IC50 (second compound 3.16 µM): 5.35 µM
- IC50 (second compound 10 µM): < 0.0316 µM
- viability, T/C [1]: 90%
- viability, T/C [2]: 94.6%
- viability, T/C [3]: 94.9%
- viability, T/C [4]: 105%
- viability, T/C [5]: 59.7%
- viability, T/C [6]: 83.3%
- viability, T/C [7]: 93.7%
- viability, T/C [8]: 115%
- viability, T/C [9]: 86.5%
- viability, T/C [10]: 79.9%
- viability, T/C [11]: 80.4%
- viability, T/C [12]: 64.4%
- viability, T/C [13]: 59%
- viability, T/C [14]: 69.9%
- viability, T/C [15]: 103%
- viability, T/C [16]: 63.8%
- viability, T/C [17]: 71.9%
- viability, T/C [18]: 45.1%
- viability, T/C [19]: 80.4%
- viability, T/C [20]: 51.6%
- viability, T/C [21]: 62%
- viability, T/C [22]: 58.7%
- viability, T/C [23]: 55.2%
- viability, T/C [24]: 61.8%
- viability, T/C [25]: 57%
- viability, T/C [26]: 60.3%
- viability, T/C [27]: 66.5%
- viability, T/C [28]: 55.7%
- viability, T/C [29]: 49.5%
- viability, T/C [30]: 47.7%
- viability, T/C [31]: 52.8%
- viability, T/C [32]: 40.8%
- viability, T/C [33]: 56.4%
- viability, T/C [34]: 41%
- viability, T/C [35]: 42.5%
- viability, T/C [36]: 74.1%
